Laboratory results published in ChEMBL document CHEMBL5120836, “Discovery of novel 7,8-dihydropteridine-6(5H)-one-based DNA-PK inhibitors as potential anticancer agents via scaffold hopping strategy” (Eur J Med Chem, 2022).
Activity calls are given as the source filed them. The rule behind the calls is not given here.

Tests used:
HepG2 [1] = test: Synergistic antiproliferative activity against Doxorubicin-resistant human HepG2 cells assessed as combination index at 0.5 uM in presence of 0.1 uM doxorubicin by MTT assay; format: functional
MCF7 [2] = test: Synergistic antiproliferative activity against human MCF7 cells assessed as combination index at 200 uM in presence of 0.1 uM doxorubicin by MTT assay; format: functional
[3] = Lipophilicity, logP of the compound; format: physicochemical; details: octanol/water
[4] = Toxicity in BALB/c nude mouse xenografted with human HL-60 cells assessed as serum lymphocytes content at 100 mg/kg, po qd for 16 days (reference value: 75.3%); format: organism-based; details: in vivo, 384 h, time 16 day
HCT-116 [5] = test: Induction of apoptosis in human HCT-116 cells assessed as late apoptotic cells at 1 uM incubated for 24 hrs by AnnexinV-FITC/PI staining based flow cytometry (reference value: 3.07%); format: functional
HL-60 [6] = test: Synergistic antitumor activity against human HL-60 cells xenografted in BALB/c nude mouse assessed as tumor weight at 100 mg/kg, po qd for 16 days co-administered with doxorubicin (reference value: 27.9%); format: functional; details: HL-60, 384 h, time 16 day
HL-60 [7] = test: Synergistic antiproliferative activity against human HL-60 cells assessed as combination index at 25 uM in presence of 0.1 uM doxorubicin by MTT assay; format: functional
HepG2 [8] = test: Synergistic antiproliferative activity against Doxorubicin-resistant human HepG2 cells assessed as inhibition of cell growth in presence of 100 nM doxorubicin by MTT assay; format: functional, cell-based
HCT-116 [9] = test: Synergistic antiproliferative activity against human HCT-116 cells assessed as combination index at 1 uM in presence of 100 nM doxorubicin by MTT assay; format: functional
[10] = Intrinsic clearance in human liver microsomes; format: ADME, Microsome; details: read-out: CLH
[11] = Toxicity in BALB/c nude mouse xenografted with human HL-60 cells assessed as effect on body weight at 100 mg/kg, po qd for 16 days; format: organism-based; details: in vivo, 384 h, time 16 day
MDA-MB-231 [12] = test: Synergistic antiproliferative activity against human MDA-MB-231 cells assessed as combination index at 3.1 uM in presence of 0.1 uM doxorubicin by MTT assay; format: functional
HCT-116 [13] = test: Inhibition of cell migration in human HCT-116 cells at 1 uM measured after 24 hrs by wound healing assay; format: functional, cell-based
[14] = Plasma protein binding in rat assessed as free fraction; format: ADME, cell-free
HL-60 [15] = test: Synergistic antiproliferative activity against human HL-60 cells assessed as combination index at 50 uM in presence of 0.1 uM doxorubicin by MTT assay; format: functional
HCT-116 [16] = test: Induction of apoptosis in human HCT-116 cells assessed as early apoptotic cells at 1 uM incubated for 24 hrs in presence of 100 nM doxorubicin by AnnexinV-FITC/PI staining based flow cytometry (reference value: 3.04%); format: functional
MDA-MB-231 [17] = test: Additive antiproliferative activity against human MDA-MB-231 cells assessed as combination index at 200 uM in presence of 0.1 uM doxorubicin by MTT assay; format: functional
[18] = Toxicity in BALB/c nude mouse xenografted with human HL-60 cells assessed as HGB level at 100 mg/kg, po qd for 16 days (reference value: 156 g/L); format: organism-based; details: in vivo, 384 h, time 16 day
HCT-116 [19] = test: Inhibition of colony formation in human HCT-116 cells at 1 uM in presence of 100 nM doxorubicin; format: functional, cell-based
[20] = Toxicity in BALB/c nude mouse xenografted with human HL-60 cells assessed as MPV level at 100 mg/kg, po qd for 16 days (reference value: 7.55 fL); format: organism-based; details: in vivo, 384 h, time 16 day
[21] = Toxicity in BALB/c nude mouse xenografted with human HL-60 cells assessed as platelets level at 100 mg/kg, po qd for 16 days (reference value: 738.5X10^9/L); format: organism-based; details: in vivo, 384 h, time 16 day
MDA-MB-231 [22] = test: Synergistic antiproliferative activity against human MDA-MB-231 cells assessed as combination index at 100 uM in presence of 0.1 uM doxorubicin by MTT assay; format: functional
[23] = Toxicity in BALB/c nude mouse xenografted with human HL-60 cells assessed as HCT level at 100 mg/kg, po qd for 16 days (reference value: 66.3%); format: organism-based; details: in vivo, 384 h, time 16 day
MDA-MB-231 [24] = test: Synergistic antiproliferative activity against human MDA-MB-231 cells assessed as inhibition of cell growth in presence of 100 nM doxorubicin by MTT assay; format: functional, cell-based
[25] = target: Phosphatidylinositol 4,5-bisphosphate 3-kinase catalytic subunit alpha isoform (Homo sapiens, UniProt P42336); test: Inhibition of human PI3Kalpha by Kinase-Glo assay; format: toxicity
[26] = Half life in Sprague-Dawley rat at 5 mg/kg, po; format: ADME, organism-based; details: in vivo
MCF7 [27] = test: Synergistic antiproliferative activity against human MCF7 cells assessed as combination index at 0.1 uM in presence of 0.1 uM doxorubicin by MTT assay; format: functional
HepG2 [28] = test: Synergistic antiproliferative activity against Doxorubicin-resistant human HepG2 cells assessed as combination index at 6.25 uM in presence of 0.1 uM doxorubicin by MTT assay; format: functional
in vitro = details: human, Caco-2
Description: Efflux ratio of apparent permeability across basolateral to apical side over apical to basolateral side in human Caco-2 cells

[29] = Intrinsic clearance in rat liver microsomes; format: ADME, Microsome; details: read-out: CLH
HL-60 [30] = test: Synergistic antiproliferative activity against human HL-60 cells assessed as inhibition of cell growth in presence of 100 nM doxorubicin by MTT assay; format: functional, cell-based
[31] = Plasma protein binding in human assessed as free fraction; format: ADME, cell-free
[32] = Toxicity in BALB/c nude mouse xenografted with human HL-60 cells assessed as MCH level at 100 mg/kg, po qd for 16 days (reference value: 14.1 pg); format: organism-based; details: in vivo, 384 h, time 16 day
MCF7 [33] = test: Synergistic antiproliferative activity against human MCF7 cells assessed as combination index at 3.1 uM in presence of 0.1 uM doxorubicin by MTT assay; format: functional
HL-60 [34] = test: Synergistic antiproliferative activity against human HL-60 cells assessed as combination index at 1 uM in presence of 0.1 uM doxorubicin by MTT assay; format: functional
[35] = Toxicity in BALB/c nude mouse xenografted with human HL-60 cells assessed as heart morphological alterations at 100 mg/kg, po qd for 16 days by Hematoxylin and Eosin staining based analysis; format: organism-based; details: in vivo, 384 h, time 16 day
MCF7 [36] = test: Synergistic antiproliferative activity against human MCF7 cells assessed as combination index at 25 uM in presence of 0.1 uM doxorubicin by MTT assay; format: functional
[37] = Toxicity in BALB/c nude mouse xenografted with human HL-60 cells assessed as RDW-SD level at 100 mg/kg, po qd for 16 days (reference value: 34 fL); format: organism-based; details: in vivo, 384 h, time 16 day
[38] = target: DNA-dependent protein kinase catalytic subunit (Homo sapiens, UniProt P78527); test: Inhibition of human native full length DNA-PK by ADP-Glo assay
MDA-MB-231 [39] = test: Synergistic antiproliferative activity against human MDA-MB-231 cells assessed as combination index at 0.1 uM in presence of 0.1 uM doxorubicin by MTT assay; format: functional
[40] = Toxicity in BALB/c nude mouse xenografted with human HL-60 cells assessed as serum WBC content at 100 mg/kg, po qd for 16 days (reference value: 3.8X10^9/L); format: organism-based; details: in vivo, 384 h, time 16 day

DNA-dependent protein kinase catalytic subunit, sequence (P78527 whole entry): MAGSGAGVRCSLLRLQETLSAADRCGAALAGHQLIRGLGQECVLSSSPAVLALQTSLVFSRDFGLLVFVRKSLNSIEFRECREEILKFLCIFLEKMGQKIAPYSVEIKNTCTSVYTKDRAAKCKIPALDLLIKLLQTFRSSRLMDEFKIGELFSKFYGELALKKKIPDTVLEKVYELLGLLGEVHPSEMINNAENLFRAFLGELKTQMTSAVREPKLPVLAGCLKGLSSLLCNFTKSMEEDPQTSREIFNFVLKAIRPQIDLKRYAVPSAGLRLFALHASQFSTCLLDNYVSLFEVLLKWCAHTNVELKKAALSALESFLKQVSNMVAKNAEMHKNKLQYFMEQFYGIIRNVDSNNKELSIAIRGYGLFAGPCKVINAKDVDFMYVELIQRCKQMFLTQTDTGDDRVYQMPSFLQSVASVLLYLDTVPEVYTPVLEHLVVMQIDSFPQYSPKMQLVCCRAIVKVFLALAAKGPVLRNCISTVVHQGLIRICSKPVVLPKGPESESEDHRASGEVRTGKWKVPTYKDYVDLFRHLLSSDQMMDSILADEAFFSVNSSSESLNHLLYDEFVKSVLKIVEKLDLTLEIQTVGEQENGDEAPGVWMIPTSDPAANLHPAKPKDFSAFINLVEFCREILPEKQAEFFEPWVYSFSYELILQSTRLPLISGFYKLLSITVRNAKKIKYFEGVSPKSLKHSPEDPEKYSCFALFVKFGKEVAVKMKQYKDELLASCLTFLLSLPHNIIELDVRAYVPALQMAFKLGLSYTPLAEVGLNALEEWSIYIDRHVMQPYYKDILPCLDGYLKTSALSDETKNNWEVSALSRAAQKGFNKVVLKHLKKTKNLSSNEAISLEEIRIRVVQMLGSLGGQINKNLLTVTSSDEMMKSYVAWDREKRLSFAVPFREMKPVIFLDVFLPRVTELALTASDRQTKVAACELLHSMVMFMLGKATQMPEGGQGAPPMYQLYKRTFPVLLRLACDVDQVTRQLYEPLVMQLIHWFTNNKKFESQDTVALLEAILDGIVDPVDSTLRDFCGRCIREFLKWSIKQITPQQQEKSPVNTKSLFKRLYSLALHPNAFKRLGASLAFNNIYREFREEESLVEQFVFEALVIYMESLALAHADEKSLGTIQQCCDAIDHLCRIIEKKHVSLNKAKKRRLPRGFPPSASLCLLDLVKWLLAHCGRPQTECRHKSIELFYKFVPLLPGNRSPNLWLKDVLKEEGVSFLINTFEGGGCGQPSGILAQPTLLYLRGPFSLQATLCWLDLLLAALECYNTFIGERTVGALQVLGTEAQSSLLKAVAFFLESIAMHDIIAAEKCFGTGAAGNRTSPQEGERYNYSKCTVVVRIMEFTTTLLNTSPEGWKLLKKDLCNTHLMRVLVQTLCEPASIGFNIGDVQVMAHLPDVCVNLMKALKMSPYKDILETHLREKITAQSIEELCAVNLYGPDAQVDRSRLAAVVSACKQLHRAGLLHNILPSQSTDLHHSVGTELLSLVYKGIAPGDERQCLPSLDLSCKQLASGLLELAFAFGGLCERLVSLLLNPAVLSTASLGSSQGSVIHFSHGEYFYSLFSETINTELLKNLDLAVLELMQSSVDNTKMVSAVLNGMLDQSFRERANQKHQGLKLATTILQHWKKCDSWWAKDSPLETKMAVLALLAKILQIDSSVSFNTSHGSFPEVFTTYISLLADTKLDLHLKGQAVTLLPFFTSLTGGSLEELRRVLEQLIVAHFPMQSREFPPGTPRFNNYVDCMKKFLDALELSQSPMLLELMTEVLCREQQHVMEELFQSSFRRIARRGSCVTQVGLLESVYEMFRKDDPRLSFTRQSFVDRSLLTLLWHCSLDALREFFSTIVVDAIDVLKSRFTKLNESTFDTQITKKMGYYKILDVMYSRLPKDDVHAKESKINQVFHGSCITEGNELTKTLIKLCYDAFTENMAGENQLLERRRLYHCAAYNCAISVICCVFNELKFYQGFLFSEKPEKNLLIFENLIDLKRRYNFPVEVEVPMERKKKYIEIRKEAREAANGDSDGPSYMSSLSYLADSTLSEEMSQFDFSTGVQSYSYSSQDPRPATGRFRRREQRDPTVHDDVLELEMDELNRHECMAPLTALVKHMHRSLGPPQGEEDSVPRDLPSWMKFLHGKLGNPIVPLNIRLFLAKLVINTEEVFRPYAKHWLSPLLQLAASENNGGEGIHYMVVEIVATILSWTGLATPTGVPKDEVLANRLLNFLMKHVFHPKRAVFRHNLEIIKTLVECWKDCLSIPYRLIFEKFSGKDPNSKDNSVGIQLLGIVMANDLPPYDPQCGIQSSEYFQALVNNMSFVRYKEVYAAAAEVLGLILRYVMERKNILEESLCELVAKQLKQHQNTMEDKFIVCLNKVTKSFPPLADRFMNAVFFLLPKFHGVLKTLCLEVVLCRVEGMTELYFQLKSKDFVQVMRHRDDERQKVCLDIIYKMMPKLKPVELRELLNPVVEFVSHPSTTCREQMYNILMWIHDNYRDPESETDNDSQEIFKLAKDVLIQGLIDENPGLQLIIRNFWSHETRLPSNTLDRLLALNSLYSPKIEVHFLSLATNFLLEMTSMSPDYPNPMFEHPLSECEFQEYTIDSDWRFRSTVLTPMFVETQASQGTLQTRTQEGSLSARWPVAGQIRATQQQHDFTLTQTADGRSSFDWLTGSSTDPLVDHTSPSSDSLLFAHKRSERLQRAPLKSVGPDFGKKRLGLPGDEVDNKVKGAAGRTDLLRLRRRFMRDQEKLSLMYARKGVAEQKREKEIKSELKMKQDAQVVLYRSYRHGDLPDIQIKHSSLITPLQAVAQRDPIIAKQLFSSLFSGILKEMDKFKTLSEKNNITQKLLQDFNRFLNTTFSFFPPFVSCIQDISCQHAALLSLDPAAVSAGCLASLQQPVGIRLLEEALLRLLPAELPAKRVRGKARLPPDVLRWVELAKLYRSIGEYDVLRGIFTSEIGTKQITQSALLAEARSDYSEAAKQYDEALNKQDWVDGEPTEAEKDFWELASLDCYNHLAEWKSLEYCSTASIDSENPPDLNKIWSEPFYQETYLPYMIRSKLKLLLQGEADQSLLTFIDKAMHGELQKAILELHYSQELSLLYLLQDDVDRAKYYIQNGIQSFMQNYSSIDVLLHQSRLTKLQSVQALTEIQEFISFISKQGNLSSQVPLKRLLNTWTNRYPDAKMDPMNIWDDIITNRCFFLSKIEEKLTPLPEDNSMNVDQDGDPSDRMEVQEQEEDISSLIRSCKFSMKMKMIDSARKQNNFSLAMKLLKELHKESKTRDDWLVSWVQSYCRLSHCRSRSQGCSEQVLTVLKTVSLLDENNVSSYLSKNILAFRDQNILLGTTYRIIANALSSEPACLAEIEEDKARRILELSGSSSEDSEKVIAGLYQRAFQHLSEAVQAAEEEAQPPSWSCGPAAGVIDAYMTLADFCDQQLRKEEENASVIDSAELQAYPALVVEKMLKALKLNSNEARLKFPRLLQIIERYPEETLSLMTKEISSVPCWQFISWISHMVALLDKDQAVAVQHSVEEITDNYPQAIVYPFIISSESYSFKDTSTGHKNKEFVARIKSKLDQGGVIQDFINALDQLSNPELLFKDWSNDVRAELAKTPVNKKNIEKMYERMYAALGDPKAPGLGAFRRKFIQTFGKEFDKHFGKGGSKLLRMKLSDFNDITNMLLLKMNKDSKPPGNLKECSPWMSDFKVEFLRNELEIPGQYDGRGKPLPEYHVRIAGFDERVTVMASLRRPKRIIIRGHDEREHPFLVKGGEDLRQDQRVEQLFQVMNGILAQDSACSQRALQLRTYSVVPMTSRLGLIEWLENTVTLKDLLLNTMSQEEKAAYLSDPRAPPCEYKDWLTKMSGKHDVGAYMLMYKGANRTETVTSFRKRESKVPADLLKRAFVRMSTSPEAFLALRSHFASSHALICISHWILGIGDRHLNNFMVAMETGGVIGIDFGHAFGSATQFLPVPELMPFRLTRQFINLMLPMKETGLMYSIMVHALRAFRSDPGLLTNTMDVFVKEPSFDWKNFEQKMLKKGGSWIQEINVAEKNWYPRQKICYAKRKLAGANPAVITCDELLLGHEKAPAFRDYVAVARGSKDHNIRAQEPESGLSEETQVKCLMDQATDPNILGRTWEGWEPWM
Phosphatidylinositol 4,5-bisphosphate 3-kinase catalytic subunit alpha isoform, sequence (P42336 whole entry, canonical isoform): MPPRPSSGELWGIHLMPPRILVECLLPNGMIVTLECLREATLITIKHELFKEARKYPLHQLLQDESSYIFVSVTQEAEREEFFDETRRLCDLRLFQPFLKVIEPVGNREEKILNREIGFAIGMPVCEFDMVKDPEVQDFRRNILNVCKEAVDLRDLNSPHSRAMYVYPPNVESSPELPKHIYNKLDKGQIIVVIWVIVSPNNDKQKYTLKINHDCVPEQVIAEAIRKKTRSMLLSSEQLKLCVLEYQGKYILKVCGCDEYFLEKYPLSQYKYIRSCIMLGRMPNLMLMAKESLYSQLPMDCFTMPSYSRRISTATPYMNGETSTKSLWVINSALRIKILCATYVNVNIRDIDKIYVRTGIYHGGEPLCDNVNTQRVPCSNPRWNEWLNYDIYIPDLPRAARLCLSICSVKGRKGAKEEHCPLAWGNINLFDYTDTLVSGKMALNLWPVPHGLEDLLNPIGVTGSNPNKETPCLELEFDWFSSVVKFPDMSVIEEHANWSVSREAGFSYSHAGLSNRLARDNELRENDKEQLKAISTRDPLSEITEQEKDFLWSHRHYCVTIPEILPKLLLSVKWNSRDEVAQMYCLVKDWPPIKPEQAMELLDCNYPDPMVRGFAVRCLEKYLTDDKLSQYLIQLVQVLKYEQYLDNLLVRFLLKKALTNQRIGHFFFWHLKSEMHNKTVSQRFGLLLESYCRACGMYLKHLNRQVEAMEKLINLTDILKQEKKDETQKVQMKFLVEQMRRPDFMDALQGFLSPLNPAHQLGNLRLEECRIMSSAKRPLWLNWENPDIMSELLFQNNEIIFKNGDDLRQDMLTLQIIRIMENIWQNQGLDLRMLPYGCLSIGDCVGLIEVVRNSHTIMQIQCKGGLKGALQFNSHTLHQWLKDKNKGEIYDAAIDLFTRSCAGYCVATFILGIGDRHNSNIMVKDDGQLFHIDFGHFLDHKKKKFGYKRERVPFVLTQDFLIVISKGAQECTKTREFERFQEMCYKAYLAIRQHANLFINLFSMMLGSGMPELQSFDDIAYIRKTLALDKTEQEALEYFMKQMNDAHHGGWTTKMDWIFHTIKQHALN

- logP [3]: 1.28
- microsomal CLint [10]: < 9.6 µL/min/mg
- fraction unbound [14]: 0.667
- half-life [26]: 1.59 h
- efflux ratio (in vitro): 4.84
- microsomal CLint [29]: < 9.6 µL/min/mg
- IC50 (HL-60 [30]): < 100 nM
- fraction unbound [31]: 0.859
- IC50 [38]: 0.8 nM
SMILES: Cc1cc2ncnn2cc1Nc1ncc2c(n1)N(C1CCOCC1)CC(=O)N2C
- CI (HepG2 [1]): 0.01657
- CI (MCF7 [2]): 0.2697
- Activity [4]: 77.25%
- Activity (HCT-116 [5]): 4.05%
- inhibition in vivo at 100 mg/kg (HL-60 [6]): 52.4%
- CI (HL-60 [7]): 0.1382
- Activity (HepG2 [8]): Active
- CI (HCT-116 [9]): 0.74
- Activity [11]: Non-Toxic
- CI (MDA-MB-231 [12]): 0.3259
- inhibition (HCT-116 [13]): Active
- CI (HL-60 [15]): 0.2758
- Activity (HCT-116 [16]): 13.3%
- CI (MDA-MB-231 [17]): 1.006
- Activity [18]: 148 g/L
- inhibition (HCT-116 [19]): Active
- Activity [20]: 6.85 fL
- Activity [21]: 750 10^9/L
- CI (MDA-MB-231 [22]): 0.9806
- Activity [23]: 65.1%
- Activity (MDA-MB-231 [24]): Active
- IC50 [25]: 187 nM
- CI (MCF7 [27]): 0.2844
- CI (HepG2 [28]): 0.0268
- Activity [32]: 14.2 pg
- CI (MCF7 [33]): 0.05143
- CI (HL-60 [34]): 0.00616
- Activity [35]: Non-Toxic
- CI (MCF7 [36]): 0.06966
- Activity [37]: 36 fL
- CI (MDA-MB-231 [39]): 0.4431
- Activity [40]: 4.35 10^9/L
